# Source: patent publication US20220031629A1, “OPHTHALMIC COMPOSITIONS FOR REMOVING MEIBUM OR INHIBITING MEIBUM BUILDUP” (Altaire Pharmaceuticals, Inc., priority 2020, published 2022)
# Tested on: normal human keratinocytes/stratified squamous epithelium (EPIOCULAR model)
# Assay: Ocular irritation MTT assay (EPIOCULAR model)
# Format: cell-based
# Protocol: Another ocular irritation study was done by exposing a microemulsion containing polyoxyl 35 castor oil in accordance with an embodiment of the present disclosure onto normal human keratinocytes/stratified squamous epithelium which is similar to that found in the cornea epithelium of the human eye (EPIOCULAR model), and then checking tissue viability with MTT assay for cytotoxicity after incubation in comparison with a water control (Cyprotex).
smiles,measurement,setting,value
COC(C)=O [Methyl Acetate],Irritation Response (Irritant if ≤ 60%),MTT assay,Positive
same,Mean Tissue Viability,"MTT assay after incubation, in comparison with water control",31.1%
